Key:
TRPA1 = TRPA1 (Mus musculus (Mouse), UniProt Q8BLA8); test: IonWorks Barracuda (IWB) automated patch clamp detection of TRPA1 inhibitory activity; assay type: cell-based; settings: HEK293 cells stably expressing TRPA1; current induced by AITC; read-out: IC50 (μM), inhibitory activity on TRPA1 in the automated patch clamp detection test
Protocol: The inhibitory activity of some compounds in the examples of the present invention (as shown in Table 1) on transient receptor potential channel protein TRPA1 was tested in this example. The compound of formula A (WO2010075353) was used as a positive control compound: […]
Ion Works Barracuda (IWB) automated patch clamp detection was used as test method: HEK293 cells stably expressing TRPA1 were placed in DMEM medium containing 15 μg/mL Blasticidin S HCl, 200 μg/mL Hygromycin B and 10% FBS in the T175 culture flask, and cultured in 37° C., 5% CO2 incubator. When the cell density reached about 80%, the culture medium was removed, rinsed with phosphate buffered saline (PBS) without calcium and magnesium. 3 mL of Trypsin was added to digest for 2 min, 7 mL of culture medium was added to terminate the digestion. The cells were collected to 15 mL centrifuge tube and centrifuged at 800 rpm for 3 min. After the supernatant was removed, the cells were added to appropriate volume of extracellular fluid for re-suspending, and the cell density was controlled at 2-3×10^6/mL for IWB experiment. Extracellular fluid formulation (in mM): 140 NaCl, 5 KCl, 1 MgCl2, 10 HEPES, 0.5 EGTA, 10 Glucose (pH 7.4); intracellular fluid formulation (in mM): 140 CsCl, 10 HEPES, 5 EGTA, 0.1 CaCl2, 1 MgCl2 (pH 7.2). 28 mg/mL of amphotericin B was freshly prepared with DMSO on the day of experiment, and then final concentration of 0.1 mg/mL was prepared with intracellular fluid.
Population patch clamp (PPC) plate was used in IWB experiment. The entire detection process was automatically carried out by the instrument. Extracellular fluid was added into 384 wells of PPC plate, and 6 µL of the intracellular fluid was added into plenum (under the PPC plate), 6 µL of cell fluid was added for sealing test, and finally the intracellular fluid in plenum was replaced with amphotericin B-containing intracellular fluid to establish a whole-cell recording mode after perforating sealed cells. The sampling frequency for recording TPRA1 current was 10 kHz, the cells were clamped at 0 mV, the voltage stimulation command (channel protocol) was a ramp voltage from −100 mV to +100 mV for 300 ms. This voltage stimulation was applied every 10 s, mTRPA1current was induced by 300 µM AITC.
Data recording and current amplitude measurement export were carried out by IWB software (version 2.5.3, Molecular Devices Corporation, Union City, CA). No statistics was recorded for holes with sealing impedance lower than 20 MQΩ. The original current data was corrected by software for leakage reduction. TRPA1 current amplitude was measured at +100 mV. […] If IC50 value of HC030031 exceeded 3 times the average IC50 value previously obtained on each plate, it would be re-tested. The dose-effect curve of compounds and IC50 were fitted and calculated by GraphPad Prism 5.02 (GraphPad Software, San Diego, CA).
Some compounds in the examples of the present invention were detected by lonWorks Barracuda (IWB) automated patch clamp detection method for IC50 inhibitory activity.

C57BL/6 mice = test: Mice formalin pain model (acute and inflammatory pain); assay type: in vivo; settings: hydrochloride salt, blank vehicle 349.55 ± 43.09
Text: 150 C57BL/6 mice (male, 9-week aged) were randomly divided into 15 groups, (each group had 10 mice) for the analgesic activity test of 3 compounds in the mice formalin pain model respectively: the compound I-1 group (compound I-1 prepared in Example 2 whose hydrochloride salt was used in the experiment), the S-duloxetine group (its hydrochloride salt was used in the experiment) and the compound C1 group (the compound C1 prepared in Comparative Example 1, whose hydrochloride salt was used in the experiment). Before the start of experiments, the mice were allowed to adapt to the experimental environment for 72 h with free feeding and drinking water. The test drugs were administrated by intraperitoneal injection at a dosage as follows:
Compound I-1 group: blank vehicle (blank saline control), 0.1 mg/kg, 0.5 mg/kg, 1 mg/kg, 5 mg/kg and 10 mg/kg;
S-duloxetine group: blank vehicle (blank saline control), 1 mg/kg, 5 mg/kg, 10 mg/kg and 20 mg/kg;
Compound C1 group: blank vehicle (blank saline control), 0.1 mg/kg, 0.5 mg/kg, 1 mg/kg, 5 mg/kg and 10 mg/kg.
After administration, the mice were placed in a transparent, ventilated plexiglass cylinder for 1 h, and then 20 μl of 4% formalin solution was injected into the left hind plantar of mice of each group by microinjector, claw pain response in mice were real-time recorded by a mini-camera. The time length of licking left claw were used as an indicator of pain response, licking time in 0-10 min (phase I) and 10-60 min (phase II) were observed and recorded, and the statistical analysis was conducted. The half effective dose (ED50) of 3 compounds were calculated: ED50 referred to the dose of the drug which decreased licking time by half as compared with the blank control group. The smaller the ED50 value was, the lower the effective analgesic dose of the compound was and the better the analgesic effect was.

Sprague-Dawley rats = test: Rat hot plate pain model (acute pain); assay type: in vivo
Protocol: Sprague-Dawley male, mature and unmated rats were placed at hot and cold plate (product model: PE34, US IITC) with constant 53±0.1° C. Mice with painful response such as licking claw, shaking claw or slightly jumping within 10-30 s were selected, and mice which evaded and jumped were abandoned. […] The test compound was freshly prepared on the day of administration. 0.9% NaCl physiological saline solution was prepared as solvent for later use. Appropriate amount of test compound was added into required volume of physiological saline and fully suspended, and the concentration of prepared drug was 1 mg/ml. […] After administration, the latency of heat pain was measured at 0.5 h, 1 h and 2 h after administration. In order to prevent animals from being scalded on the hot plate, the maximum incubation time was set to 30 s. Maximum possible effect (MPE) % was used to evaluate analgesic effect of each compound, i.e., MPE %=[(Post drug latency−baseline latency)/(30−baseline latency)]×100. MPE % at different time points was recorded.

ICR mice = test: Mice acetic acid writhing pain model (visceral and inflammatory pain); assay type: in vivo; settings: 10 mg/kg by gavage, 1 h before acetic acid; saline group 49 times
Protocol: Male ICR mice, 22-25 g, were fasted but allowed to drink water freely for 2 h before administration. All ICR mice were weighed and grouped randomly, each group had >10 animals. […] The drug was administrated by gavage based on the weight of mice. 1.5% acetic acid solution (0.1 ml/10 g) was injected intraperitoneally 1 h after administration, and the number of times of visceral pain in each group was observed within 30 min. When concave abdomen, stretched trunk and hind claw, and high buttocks appeared, one number point was recorded. Finally, the number of appearance of the above phenomenon was counted within 30 minutes.

SD rats = test: Rat SNL model, mechanical allodynia test (nerve pain); assay type: in vivo; settings: 1 h after administration, 100 mg/kg oral; control group 3.967 ± 0.775
Protocol: Male SPF grade SD rats, weighed 150 g-180 g, were selected. Aseptic operation during surgery was performed. The animals were anesthetized with sodium pentobarbital (50 mg/kg, intraperitoneal injection). The surgical area of animal waist was shaved and the skin was disinfected three times with iodophor and 70% ethanol. After the skin was dried, the operation was started. Surgical knife was used to make a longitudinal incision at the back of the sacrum of the animal waist to expose the left paraspinal muscles, and stretcher was used to separate muscle tissue to expose the spine. The left spinal nerves L5 and L6 were separated and ligated with a 6-0 silk thread, and the wound was sutured. After the operation, the animals were placed on electrothermal pad, and 5 mL of saline was injected subcutaneously to prevent dehydration. After the animals were fully awakened and could move around freely, the animals were put back in the cage.
After the operation, the animals were adapted in the experimental environment for 15min/day for 3 days.
The animals were weighed to calculate the dose. […] After administration, mechanical allodynia test was performed. The rat was individually placed in a plexiglass box with a grid on the bottom of the box to ensure that the rat claw could be tested. The rats were allowed to adapt the environment for 15 min before test. After the adaptation was completed, the test fiber was used to test the center of the left hind claw of the rat. The test fiber comprises 8 test strengths: 3.61 (0.4 g), 3.84 (0.6 g), 4.08 (1 g), 4.31 (2 g), 4.56 (4 g), 4.74 (6 g), 4.93 (8 g), and 5.18 (15 g). […] During the test, rapid withdrawal of animal claw was recorded as pain response. When the test fiber was removed from animal skin, the withdrawal of animal claw was also recorded as pain response. If animal moved, the pain response was not recorded, and the test was repeated. […]
Mechanical allodynia was expressed as withdrawal threshold (PWT) in rat behavioral test, which was calculated with the following formula: […]

Chain of TRPA1 (Q8BLA8 whole entry): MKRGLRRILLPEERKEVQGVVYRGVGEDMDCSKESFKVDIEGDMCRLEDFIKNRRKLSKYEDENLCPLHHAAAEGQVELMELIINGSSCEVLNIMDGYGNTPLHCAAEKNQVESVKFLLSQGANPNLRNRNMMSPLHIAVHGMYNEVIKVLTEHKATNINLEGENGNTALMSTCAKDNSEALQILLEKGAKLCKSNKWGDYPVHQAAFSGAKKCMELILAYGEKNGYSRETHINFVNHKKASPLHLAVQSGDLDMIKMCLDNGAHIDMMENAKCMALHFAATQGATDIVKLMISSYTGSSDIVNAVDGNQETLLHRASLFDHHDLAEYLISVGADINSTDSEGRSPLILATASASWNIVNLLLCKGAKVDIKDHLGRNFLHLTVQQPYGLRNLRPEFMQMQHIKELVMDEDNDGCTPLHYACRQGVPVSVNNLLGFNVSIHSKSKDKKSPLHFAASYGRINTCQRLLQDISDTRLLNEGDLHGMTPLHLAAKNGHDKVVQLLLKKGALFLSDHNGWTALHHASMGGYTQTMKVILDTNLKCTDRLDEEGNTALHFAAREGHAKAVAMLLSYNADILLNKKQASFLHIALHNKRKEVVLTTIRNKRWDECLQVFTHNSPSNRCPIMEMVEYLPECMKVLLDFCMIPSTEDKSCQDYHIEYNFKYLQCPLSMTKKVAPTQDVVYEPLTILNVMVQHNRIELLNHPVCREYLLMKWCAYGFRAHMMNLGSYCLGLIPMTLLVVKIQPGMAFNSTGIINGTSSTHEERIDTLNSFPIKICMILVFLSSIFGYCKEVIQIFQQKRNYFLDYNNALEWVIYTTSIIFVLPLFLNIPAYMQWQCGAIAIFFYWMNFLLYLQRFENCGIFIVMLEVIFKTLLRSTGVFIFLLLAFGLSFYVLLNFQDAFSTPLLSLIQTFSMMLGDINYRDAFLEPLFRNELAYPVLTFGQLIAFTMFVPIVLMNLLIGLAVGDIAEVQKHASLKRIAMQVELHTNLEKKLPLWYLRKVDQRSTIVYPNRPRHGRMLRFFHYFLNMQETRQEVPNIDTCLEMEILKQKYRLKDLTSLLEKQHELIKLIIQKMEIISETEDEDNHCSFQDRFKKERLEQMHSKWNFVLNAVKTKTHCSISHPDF

CNCC[C@@H](Oc1cccc2ccoc12)c1ccc(C)s1 [Compound I-6, (R)-3-(benzofuran-7-yloxy)-N-methyl-3-(5-methylthiophen-2-yl)propyl-1-amine]
IC50 (TRPA1): 6 to 10 µM

CNCC[C@H](Oc1cccc2ccoc12)c1cccs1 [Compound C1, (S)-3-(benzofuran-7-yloxy)-N-methyl-3-(thiophen-2-yl)propyl-1-amine]
Licking claw time (s) in phase II (10-60 min) (C57BL/6 mice; 0.1 mg/kg intraperitoneal): 339.35 ± 27.90 s | Licking claw time (s) in phase II (10-60 min) (C57BL/6 mice; 0.5 mg/kg intraperitoneal): 368.16 ± 44.46 s | Licking claw time (s) in phase II (10-60 min) (C57BL/6 mice; 1 mg/kg intraperitoneal): 171.57 ± 39.69 s | Licking claw time (s) in phase II (10-60 min) (C57BL/6 mice; 5 mg/kg intraperitoneal): 158.02 ± 25.18 s | Licking claw time (s) in phase II (10-60 min) (C57BL/6 mice; 10 mg/kg intraperitoneal): 35.68 ± 11.77 s | MPE % (Sprague-Dawley rats; 0.5 h after administration, 30 mg/kg intraperitoneal, hydrochloride salt): 5.29 ± 1.56% | MPE % (Sprague-Dawley rats; 1 h after administration, 30 mg/kg intraperitoneal, hydrochloride salt): 14.20 ± 5.71% | MPE % (Sprague-Dawley rats; 2 h after administration, 30 mg/kg intraperitoneal, hydrochloride salt): 21.83 ± 2.45%

CNCC[C@@H](Oc1cccc2occc12)c1cccs1 [Compound I-11, (R)-3-(benzofuran-4-yloxy)-N-methyl-3-(thiophen-2-yl)propyl-1-amine]
IC50 (TRPA1): 6 to 10 µM

CNCC[C@@H](Oc1cccc2ccoc12)c1ccccc1 [Compound C2, (R)-3-(benzofuran-7-yloxy)-N-methyl-3-phenylpropyl-1-amine]
IC50 (TRPA1): 11 to 20 µM

NCC[C@@H](Oc1cccc2ccoc12)c1cccs1 [Compound I-2, (R)-3-(benzofuran-7-yloxy)-3-(thiophen-2-yl)propyl-1-amine]
IC50 (TRPA1): 6 to 10 µM

CN1[C@H]2C[C@H](OC(=O)[C@H](CO)c3ccccc3)C[C@@H]1[C@@H](O)C2 [anisodamine]
number of appearance of writhing reactions (visceral pain) within 30 min (ICR mice): 27 times

COc1ccc2c(c1)c(CC(=O)O)c(C)n2C(=O)c1ccc(Cl)cc1 [indomethacin]
number of appearance of writhing reactions (visceral pain) within 30 min (ICR mice): 28 times

CNCC[C@@H](Oc1cccc2ccccc12)c1cccs1 [R-duloxetine]
IC50 (TRPA1): 21 to 50 µM

C[C@H]1CCCN1c1ccc(-c2csc(NC(=O)Cn3cnc4c3c(=O)n(C)c(=O)n4C)n2)cc1F [Compound of formula A]
IC50 (TRPA1): 51 to 100 µM

NCC1(CC(=O)O)CCCCC1 [Gabapentin, gabapentin]
MPE % (Sprague-Dawley rats; 0.5 h after administration, 100 mg/kg intraperitoneal): 6.47 ± 5.49% | MPE % (Sprague-Dawley rats; 1 h after administration, 100 mg/kg intraperitoneal): 14.56 ± 6.18% | MPE % (Sprague-Dawley rats; 2 h after administration, 100 mg/kg intraperitoneal): 22.66 ± 4.93% | PWT(g), claw withdrawal threshold (SD rats): 6.352 ± 1.897 g

CCNCC[C@@H](Oc1cccc2ccoc12)c1cccs1 [Compound I-4, (R)-3-(benzofuran-7-yloxy)-N-ethyl-3-(thiophen-2-yl)propyl-1-amine]
IC50 (TRPA1): 1 to 5 µM

CNCC[C@@H](Oc1cccc2ccoc12)c1ccco1 [Compound I-8, (R)-3-(benzofuran-7-yloxy)-3-(furan-2-yl)-N-methylpropyl-1-amine]
IC50 (TRPA1): 1 to 5 µM

CNCC[C@@H](Oc1cccc2c1CCC2)c1cccs1 [Compound I-9, (R)-3-((2,3-dihydro-1H-inden-4-yl)oxy)-N-methyl-3-(thienyl-2yl)propyl-1-amine]
IC50 (TRPA1): 6 to 10 µM

CNCC[C@@H](Oc1cccc2ccoc12)c1ccsc1 [Compound I-5, (R)-3-(benzofuran-7-yloxy)-N-methyl-3-(thiophen-3-yl)propyl-1-amine]
IC50 (TRPA1): 1 to 5 µM

CN(C)CC[C@@H](Oc1cccc2ccoc12)c1cccs1 [Compound I-3, (R)-3-(benzofuran-7-yloxy)-N,N-dimethyl-3-(thiophen-2-yl)propyl-1-amine]
IC50 (TRPA1): 1 to 5 µM

Source: patent US20250042884A1, “3-ARYLOXYL-3-FIVE-MEMBERED HETEROARYL PROPYLAMINE COMPOUND AND USE THEREOF” (Shanghai Leado Pharmatech Co. Ltd., priority 2018, published 2025)
